Results taken from patent publication US10398751B2, “Pharmaceutical compositions of water soluble peptides with poor solubility in isotonic conditions and methods for their use” (STRONGBRIDGE IRELAND LIMITED, priority 2016, dated 2019).
Where a name gives a salt, the structure may show the parent alone.

Assays:
[1] = Comparative surface tension of peptides in water for injection; type: physicochemical; details: 10 mg/ml in WFI
[2] = Solubility of COR005 acetate in aqueous media with additives at 25° C.; type: physicochemical; details: read-out: Solubility of COR005 Acetate (mg/ml) at 25° C.
Source text: Table 3 summarizes the solubility values of COR005 acetate in various aqueous media, the effects of additives such as DEX and HPB on the peptide solubility in saline and physiological conditions, as well as the PK profile of IR and MS formulations prepared with these additives in comparison to COR005 without additives as control.
Note that both media (PBS or Saline) contained physiological concentrations of chloride which indicates the incompatibility and salting out of the peptide in the presence of the chloride ion.
The relatively high solubility of COR005 acetate in 5% dextrose (in water) of greater than 500 mg/ml indicates the improved solubility of the peptide in water with dextrose. […] Note that this 1:1 diluted dextrose in saline was used as a vehicle in the IR study of COR005 acetate in rats and minipigs (the DEX:PEP ratio was 5:1).

[3] = Peptide content, encapsulation efficiency and residual additives of microspheres; type: physicochemical; details: Example 7 PLGA 50:50 (7-17 kDa) microspheres
Source text: These observations and conclusion are supported by the analysis of the residual HPB concentration in the MS formulations of HPB. Indeed, the analytical data (see below) confirms that the same ratio of HPB:PEP were maintained in the final MS of HPB and therefore verifying the conditions and data of Table 6.
Therefore, unlike the case of HPB, the effect of the DEX on the COR005 surface activity at the injection site seems to be negligible. The effect for the DEX is addressed in the SEM analysis section below.
Tables 19 and 20 summarize the peptide content and encapsulation efficiency (EE) of bulk samples of microspheres, measured by HPLC.
PLGA microspheres containing veldoreotide acetate were prepared. 500 mg of PLGA 50:50 (7-17 kDa) was dissolved in 5 mL dichloromethane oil phase). An aqueous solution contacting 50 mg of veldoreotide acetate in 1 ml of DDW prepared separately (inner aqueous phase). The first aqueous phase was emulsified into the oil phase (containing PLGA), using a high-speed homogenizer (Polytron) at 2-8° C. using different speeds and time durations to form water in oil primary emulsion. The primary emulsion was added (drop wise) into the 100 ml of external aqueous phase containing 1% PVA solution in PBS to form secondary emulsion. […]

[4] = system: human lymphocytes; assay: Human peripheral blood lymphocytes proliferation assays; type: cell-based
[5] = Solubility in Tris-HCl and lysine solutions; type: physicochemical
Experimental: In light of the solubility of veldoreotide acetate in Tris-HCl, the solubility of veldoreotide acetate was tested in solutions containing L-lysine and L-lysine HCl.

[6] = Quantitative assessment of veldoreotide acetate solubility by HPLC; type: physicochemical; details: read-out: Solubility (g/liter) - HPLC
Source text: The solubility of veldoreotide acetate in aqueous media was screened by the following method. A fixed amount of 10 milligrams of the peptide was weighed and dissolved at ambient temperature by increased (incremental) volumes of the tested medium until a complete solubility was observed, i.e, clear/transparent solution and absence of any precipitates (the solubility endpoint values were defined according to USP guidance). Following the results of the screening studies, several media were selected for verification studies based on quantitative assessment of the peptide concentration by HPLC (maximal solubility). The results of the screening study are depicted in Table 1 while the results of the verification studies are included in Table 2.

[7] = system: human Carcinoid cell line; assay: Chromogranin A release; type: cell-based
[8] = Circulatory half-life after subcutaneous administration to rats; details: rat, in vivo, sc
Source text: The unique pharmacokinetic profile of veldoreotide acetate as evaluated in animals is consistent with its metabolic stability as evaluated in-vitro against various enzymes and tissue homogenates. […] This prolonged half-life is due to its unique “flip-flop” kinetics, a result of its slow release from the injection site.

In the case of `C[C@@H](O)[C@@H]1NC(=O)[C@H](CCCCN)NC(=O)[C@@H](Cc2c[nH]c3ccccc23)NC(=O)[C@H](Cc2c[nH]c3ccccc23)NC(=O)[C@H](Cc2ccccc2)NC(=O)CCCNC(=O)CCCN(CC(N)=O)C(=O)[C@H](Cc2ccccc2)NC1=O` [Veldoreotide, cyclo(-γ-aminobutyryl-L-phenylalanyl-L-tryptophanyl-D-tryptophanyl-L-lysyl-L-threonyl-L-phenylalanyl-N-carbamoylmethyl-γ-aminobutyryl)], the “Effect of reduced surface tension (%)” value ([1]; baseline WFI) is reported as −37%, the “Water surface tension (dyne/cm)” value ([1]; baseline WFI 52) is reported as 33 dyne/cm and the solubility ([2]; isotonic 5% dextrose in water, 5% Dextrose Isotonic, additives none) is reported as > 500 mg/mL.

For `C[C@@H](O)[C@@H]1NC(=O)[C@H](CCCCN)NC(=O)[C@@H](Cc2c[nH]c3ccccc23)NC(=O)[C@H](Cc2c[nH]c3ccccc23)NC(=O)[C@H](Cc2ccccc2)NC(=O)CCCNC(=O)CCCN(CC(N)=O)C(=O)[C@H](Cc2ccccc2)NC1=O` [Veldoreotide Acetate, Cyclo(-γ-aminobutyryl-L-phenylalanyl-L-tryptophanyl-D-tryptophanyl-L-lysyl-L-threonyl-L-phenylalanyl-N-carbamoylmethyl-γ-aminobutyryl), acetate salt], the “encapsulation efficiency (EE) %” value [3] was 77%, the “final drug load in microspheres” value [3] was 6 weight % and the “mitogenicity for human lymphocytes” value [4] was “non-mitogenic”. For the same molecule, the solubility ([5]; 20 mM Tris-HCl) was “highly soluble”, the solubility ([5]; Tris-HCl increased to 137 mM or 117 mM NaCl added) was “significantly reduced” and the “effect on solubility of veldoreotide acetate” value ([5]; addition of L-lysine HCl, isotonic media) was “substantially improved”. For the same molecule, the “effect on solubility of veldoreotide acetate” value ([5]; solution containing L-lysine) was “did not substantially improve”, the solubility ([6]; 20 mM HEPES buffer, 20 mM HEPES, pH 7.2) was 212 g/L and the solubility ([6]; 20 mM phosphate buffer, 20 mM Phosphate (10 mM Na2HPO4 + 10 mM NaH2PO4), pH 7.2) was 212 g/L. For the same molecule, the solubility ([6]; 0.9% NaCl, pH 4.5) was 2.31 g/L, the solubility ([6]; PBS, pH 7.4) was 3.25 g/L and the solubility ([6]; water) was 234 g/L. The solubility ([2]; 0.45% NaCl with […] dextrose (isotonic), Isotonic 0.45NS (0.45% NaCl) 2.5D Dextrose […], DEX:PEP 5:1) was 6 to 7 mg/mL, the solubility ([2]; 0.45% NaCl, 0.45NS - 0.45% NaCl, additives none) was 3 mg/mL and the solubility ([2]; 5% dextrose in water (isotonic), 5% Dextrose Isotonic, additives none) was ≥ 300 mg/mL. It also gave a solubility ([2]; isotonic PBS pH 7.4, pH 7.4, PBS pH 7.4 Isotonic, HPB:PEP 1:1) of 4.5 mg/mL, a solubility ([2]; isotonic PBS pH 7.4, pH 7.4, PBS pH 7.4 Isotonic, HPB:PEP 1:4) of 2.5 mg/mL and a solubility ([2]; isotonic PBS pH 7.4, pH 7.4, PBS pH 7.4 Isotonic, HPB:PEP 10:1) of 10 mg/mL. For the same molecule, the solubility ([2]; isotonic PBS with HPB, pH 7.4, PBS pH 7.4 Isotonic, HPB:PEP 1:2) was 2.5 mg/mL, the solubility ([2]; isotonic PBS with dextrose, pH 7.4, PBS pH 7.4 Isotonic, DEX:PEP 1:8) was 2 mg/mL and the solubility ([2]; isotonic PBS with dextrose, pH 7.4, PBS pH 7.4 Isotonic, DEX:PEP 5:1) was 1.6 mg/mL. For the same molecule, the solubility ([2]; isotonic saline, Saline Isotonic, HPB:PEP 15:1) was 10 mg/mL, the solubility ([2]; isotonic saline, Saline Isotonic, Lys-HCl:PEP 4:1) was 1.7 mg/mL and the solubility ([2]; lactic acid buffer pH 4.0, isotonic, pH 4, Lactic acid buffer pH 4.0 Isotonic, MAN:PEP 20:1, HPB:PEP 15:1, Est. = estimated by UV-Vis) was 500 mg/mL. For the same molecule, the solubility ([2]; lactic acid buffer pH 4.0, isotonic, pH 4, Lactic acid buffer pH 4.0 Isotonic, Mannitol MAN:PEP 20:1, Est. = estimated by UV-Vis) was 500 mg/mL, the solubility ([2]; normal saline (0.9% NaCl), NS - 0.9% NaCl, additives none) was 1 to 2 mg/mL and the solubility ([2]; water, additives none) was ≥ 300 mg/mL. The “Chromogranin A release” value [7] was “inhibits” and the half-life [8] was ~3 h.
